Test results reported in ChEMBL document CHEMBL2311259, “Synthesis of novel chromene derivatives of expected antitumor activity” (Eur J Med Chem, 2013).

Tested on: MCF7
Assay: Ratio of colchicine IC50 to compound IC50 for human MCF7 cells by SRB assay
Type: functional

SMILES | Ratio IC50
COc1ccc2c(c1)Oc1ncn(C)c(=N)c1C2c1ccc(Cl)cc1 (racemic) | 2
COc1ccc2c(c1)Oc1ncn(N)c(=N)c1C2c1ccc(Cl)cc1 (mixture of isomers) | 1.5
CCOc1ccc2c(c1)Oc1ncn3nc(-c4ccc(OC)cc4)nc3c1C2c1ccc(Cl)cc1 (racemic) | 1.5
CCOC(=O)c1nc2c3c(ncn2n1)Oc1cc(OCC)ccc1C3c1ccc(Cl)cc1 (racemic) | 2
COc1ccc(-c2nc3c4c(ncn3n2)Oc2cc(OC)ccc2C4c2ccc(Cl)cc2)cc1 (racemic) | 1.5
